In article PMC5084075 (ACS Central Science, 2016):
Read-outs that look alike come from different tables or passages of the source.

Legend:
PfDHODH [1] = biological target: T1, PfDHODH (Plasmodium falciparum, UniProt Q08210); assay: biochemical; design: PfDHODH enzyme inhibition IC50; details: read-out: >50
T1 sequence (Q08210 1-569): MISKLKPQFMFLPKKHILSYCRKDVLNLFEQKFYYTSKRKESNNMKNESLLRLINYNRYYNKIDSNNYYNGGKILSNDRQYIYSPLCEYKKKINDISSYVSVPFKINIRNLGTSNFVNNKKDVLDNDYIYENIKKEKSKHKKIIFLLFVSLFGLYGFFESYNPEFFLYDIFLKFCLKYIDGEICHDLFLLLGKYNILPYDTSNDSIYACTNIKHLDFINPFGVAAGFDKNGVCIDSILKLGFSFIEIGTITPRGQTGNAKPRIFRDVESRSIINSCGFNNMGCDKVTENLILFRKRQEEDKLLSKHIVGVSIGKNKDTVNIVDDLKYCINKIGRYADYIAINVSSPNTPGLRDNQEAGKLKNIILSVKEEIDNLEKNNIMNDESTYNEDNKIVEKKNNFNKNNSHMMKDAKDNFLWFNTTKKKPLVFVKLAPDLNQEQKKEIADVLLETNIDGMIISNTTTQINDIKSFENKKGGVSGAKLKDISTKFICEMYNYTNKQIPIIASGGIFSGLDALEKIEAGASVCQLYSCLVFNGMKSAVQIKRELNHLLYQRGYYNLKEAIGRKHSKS

[2] = test system: T2, Plasmodium falciparum 3D7; assay: microbe, parasite or virus in culture; design: species or system P. falciparum blood stage culture; whole-cell asexual blood stage P. falciparum growth inhibition; details: Avery assay, read-out: 3D7 / IC50nM
T2 construct: 3D7
Procedure: (§1) To confirm the promise of the two starting points OSM-S-5 and -6, they were evaluated against 3D7 (drug-sensitive) and K1 (chloroquine resistant) strains of Plasmodium falciparum in a whole cell assay and against HEK-293 cells as a cytotoxicity marker (Table SB1, Biological Protocols; tables with the prefix “SB” may be found in the Supporting Information). Biological data may be browsed in a static data set taken as a snapshot for this paper (Data Sets S1 (Excel), S2 (SDF)), online in a database constructed through periodic batch uploads,[68] or in a “living database” to which may be added future data;[69] the latter may be visualized in a web browser[70] using an open source system that was recently deployed in the Wikipedia Chemical Structure Explorer,[71] or the data may be downloaded and visualized offline with proprietary (Figure S4)[72] or open source (Figure S5)[73] tools). The evaluation was performed in three different institutions using different assays and widely employed controls; controls are important to assess reproducibility and interassay variability[74] but also to minimize possible bias in evaluating compounds where there are pre-existing data from other researchers already in the public domain (Figure S6).[75]

[3] = test system: T3, Plasmodium falciparum K1 (chloroquine resistant); assay: microbe, parasite or virus in culture; design: species or system P. falciparum blood stage culture; whole-cell asexual blood stage P. falciparum growth inhibition
T3 construct: K1
Procedure: as §1

in vitro [4] = assay: in vitro; design: cytotoxicity counter-screen on HEK293 cells; details: human, hek293 cells; read-out: HEK 293 / IC50nM
Procedure: as §1

[5] = test system: Plasmodium falciparum Pfal (strain not named in column head); assay: microbe, parasite or virus in culture; design: species or system P. falciparum blood stage culture; whole-cell asexual blood stage P. falciparum growth inhibition
Procedure: as §1

[6] = test system: T4, Plasmodium falciparum Pfal (3D7); assay: microbe, parasite or virus in culture; design: species or system erythrocytes; P. falciparum asexual blood-stage whole-cell growth inhibition, IC50; details: 3D7, Erythrocyte, lab named in column head
T4 construct: 3D7
Procedure: as §1

[7] = test system: T5, Plasmodium falciparum Pfal (K1); assay: microbe, parasite or virus in culture; design: species or system erythrocytes; P. falciparum asexual blood-stage whole-cell growth inhibition, IC50; details: K1, Erythrocyte, lab named in column head
T5 construct: K1
Procedure: as §1

PfDHODH [8] = biological target: T1, PfDHODH; assay: biochemical; design: PfDHODH enzyme inhibition IC50; details: read-out: DHODH
Description: (§2) The potency of the near neighbor set led to an in silico target prediction study being performed on OSM-S-39 (Text S11). The method employed a naive Bayes statistical model identifying molecular structural features of small molecules with protein targets, using the ChEMBL database. Similar statistical approaches based on known activities of compounds have been successfully applied to identify targets of antitubercular compounds.[112]−[114] A total of 1,287 proteins were included for which at least 50 active compounds were known with activities <10 μM, with the other compounds in the database comprising the inactives. After the OSM compounds were scored against each target, the scores obtained were standardized by comparison with scores obtained through comparison with a random set of >10K compounds. The prediction list was culled for proteins relevant to malaria (3D7 proteome), and the analysis gave as the most likely candidate targets, in order of significance, carboxy-terminal domain RNA polymerase II polypeptide A small phosphatase 1 (Q8I3U9), dihydroorotate dehydrogenase (DHODH, Q08210), SUMO-activating enzyme subunit 2 (Q8I553) and 1 (Q8IHS2), and cyclin-dependent kinase 1 (P61075). […] A line of inquiry remaining open is the equivalent assays against the other targets identified in the in silico prediction.

[9] = biological target: T6, hERG (human ether-à-go-go-related gene ion channel) (Homo sapiens, UniProt Q12809); assay: cell-based; design: hERG channel inhibition counterscreen; details: read-out: hERG pIC50 (converted)
T6 construct: gene KCNH2
T6 sequence (Q12809 whole entry): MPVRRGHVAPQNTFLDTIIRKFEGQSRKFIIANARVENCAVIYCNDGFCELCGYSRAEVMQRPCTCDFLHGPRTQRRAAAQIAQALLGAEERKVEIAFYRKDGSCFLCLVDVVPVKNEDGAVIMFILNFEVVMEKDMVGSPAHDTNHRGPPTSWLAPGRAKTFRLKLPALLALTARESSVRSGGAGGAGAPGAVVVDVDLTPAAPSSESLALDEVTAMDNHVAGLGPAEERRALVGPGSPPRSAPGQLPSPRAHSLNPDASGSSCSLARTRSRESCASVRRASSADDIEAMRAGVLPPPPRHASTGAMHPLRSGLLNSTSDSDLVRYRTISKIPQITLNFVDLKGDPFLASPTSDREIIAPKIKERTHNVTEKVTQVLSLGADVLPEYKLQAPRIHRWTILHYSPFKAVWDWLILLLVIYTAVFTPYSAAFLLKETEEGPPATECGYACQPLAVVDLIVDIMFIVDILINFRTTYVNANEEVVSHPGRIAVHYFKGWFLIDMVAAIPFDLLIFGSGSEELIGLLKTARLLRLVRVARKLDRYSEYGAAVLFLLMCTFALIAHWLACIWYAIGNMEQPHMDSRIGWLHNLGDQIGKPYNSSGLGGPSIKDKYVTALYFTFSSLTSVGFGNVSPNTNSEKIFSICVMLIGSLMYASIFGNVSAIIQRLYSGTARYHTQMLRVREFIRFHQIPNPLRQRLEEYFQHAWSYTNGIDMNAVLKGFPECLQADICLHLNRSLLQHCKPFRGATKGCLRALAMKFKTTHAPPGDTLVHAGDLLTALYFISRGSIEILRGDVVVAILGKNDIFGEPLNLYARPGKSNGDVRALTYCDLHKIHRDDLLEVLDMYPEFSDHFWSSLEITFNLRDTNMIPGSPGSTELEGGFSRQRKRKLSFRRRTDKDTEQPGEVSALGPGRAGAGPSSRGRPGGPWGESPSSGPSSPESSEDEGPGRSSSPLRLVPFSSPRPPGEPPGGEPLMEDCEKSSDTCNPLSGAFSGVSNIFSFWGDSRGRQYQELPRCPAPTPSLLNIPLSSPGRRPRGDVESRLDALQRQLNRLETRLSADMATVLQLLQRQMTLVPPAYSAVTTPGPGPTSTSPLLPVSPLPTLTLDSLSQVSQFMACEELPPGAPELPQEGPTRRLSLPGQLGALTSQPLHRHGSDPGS
Description: There is increasing awareness of the importance for drug candidates of inhibition of hERG (the human ether-à-go-go-related gene ion channel), which is sensitive to blockade by many drug-like structures. Such blockage has led to a number of prominent postmarketing withdrawals.[103] Regulators are sensitive to any hERG activity, and a hERG counterscreen is often now run early in hit characterization and series prioritization.

in vitro [10] = assay: in vitro; design: stability in mouse plasma; details: plasma; mouse plasma; read-out: t1/2 plasma Mouse
Procedure: (§3) Representative compounds from both subseries were evaluated in an oral in vivo mouse trial (Data Set S22). The original starting points OSM-S-5 and -6 (Figure 2) were chosen along with NN representative OSM-S-35 (Figure 4). […] It is plausible that at least some of the arylpyrrole ester compounds would be degraded by general hydrolysis during absorption, and this could explain their inactivity in the mouse model despite their more favorable (although still high) cLogP values. […] Esterase activity is higher in rodents than in other species,[102] as confirmed by using p-nitrophenol acetate as a control compound in this assay.

in vitro [11] = assay: in vitro; design: plasma stability, half-life and per cent remaining; details: plasma; plasma Mouse; read-out: t1/2 plasma Mouse
Procedure: as §3

[12] = test system: Plasmodium falciparum mature stage V gametocytes (DGFA); assay: microbe, parasite or virus in culture; design: dual gamete formation assay, inhibition of male and female gamete formation; details: 24 h
Procedure: (§4) The discrepancy in the data arising from these two gametocyte assays may arise from the slightly different cell biology assayed (stage IV/V gametocytes vs stage V mature gametocytes) or most likely is a function of the relative compound exposure times (96 h vs 24 h).

[13] = test system: Plasmodium falciparum late stage (IV-V) gametocytes; assay: microbe, parasite or virus in culture; design: species or system P. falciparum gametocytes; late stage (IV-V) gametocyte viability assay; details: 96 h, read-out: Late Stage Gametocyte (Avery)
Procedure: as §4, with “There are relatively few compounds effective against the gametocyte stage of the parasite,[12],[13] though such compounds are important in the prevention of disease transmission. Four compounds found to be active in the asexual assay were evaluated against late stage (IV–V) gametocytes. […] The” for “The”

HEK293 = assay: cells; design: cytotoxicity counter-screen on HEK293 cells; details: Homo sapiens, cytotoxicity
Procedure: as §1

in vitro [14] = assay: in vitro; design: HepG2 cytotoxicity beside the liver stage assay; details: human, hepg2 cells
Description: (§5) Of particular note is the striking potency of the nontoxic compound OSM-S-38, which may at this level provide protection from malaria to people who have been treated with the compound after an infectious bite.

PfDHODH [15] = biological target: T1, PfDHODH; assay: biochemical; design: PfDHODH enzyme inhibition assay, IC50; details: read-out: DHODH
Description: as §2

in vitro [16] = assay: in vitro; design: metabolic stability in mouse liver microsomes, LC-MS, NADPH, 0.4 mg/mL protein; details: liver microsomes, mouse liver microsomes
Procedure: (§6) The two original GSK hits (OSM-S-5 and -6) and six NN compounds were evaluated for their kinetic solubility in phosphate buffer and their metabolic stability in human liver microsomes (Table SB5, Data Sets S20 and S21).

in vitro [17] = assay: in vitro; design: metabolic stability in human liver microsomes, LC-MS, NADPH, 0.4 mg/mL protein; details: liver microsomes, human liver microsomes
Procedure: as §6

[18] = test system: Plasmodium berghei Pb Liver Stage; assay: microbe, parasite or virus in culture; design: liver stage assay, sporozoites in liver cells; details: HepG2
Description: as §5

[19] = test system: Plasmodium berghei Pb Liver Stage; assay: microbe, parasite or virus in culture; design: P. berghei sporozoite liver stage development inhibition, IC50; details: HepG2
Description: as §5

in vitro [20] = assay: in vitro; design: microsomal stability with NADPH, LC-MS, half-life and CLint; details: human, liver microsomes, HLM
Procedure: as §6

[21] = Avery assay, read-out: K1 / IC50nM

`CC(C)=CCC1=C(O)C(=O)c2ccccc2C1=O` [Lapachol] gave an IC50 (PfDHODH [1]) greater than 100000 nM.
For `CN(Cc1cnc2nc(N)nc(N)c2n1)c1ccc(C(=O)N[C@@H](CCC(=O)O)C(=O)O)cc1` [Methotrexate], the IC50 [2] was 25.8 nM, the IC50 [3, 21] was 25 nM and the CC50 (in vitro [4]) was 11.8 nM.
`Cc1cc(C(=O)OCC(N)=O)c(C)n1-c1ccc(F)cc1` [OSM-S-5] showed an IC50 ([3]; Batra assay, read-out: Pfal (K1) IC50 (Batra)) of 641 nM, an IC50 ([5]; Batra assay) of 581 nM and an IC50 ([6]; read-out: Pfal IC50 (Batra)) of 581 nM. It also gave an IC50 ([7]; read-out: Pfal (K1) IC50 (Batra)) of 641 nM, an IC50 (PfDHODH [8]) greater than 50000 nM and an IC50 [9] greater than 31600 nM. The half-life (in vitro [10]) was 1.9 h, the half-life (in vitro [11]) was 1.9 h and the inhibition at 1 µM ([12]; female gametocytes) was 13.5%. It also gave an inhibition at 1 µM ([12]; male gametocytes) of 5.1%.
In the case of `CC(=O)N(C1=NC(=O)/C(=C/c2cc(C)n(-c3ccc(F)cc3)c2C)S1)c1ccccc1` [OSM-S-9], the IC50 [13] is reported as 28 nM and the IC50 (PfDHODH [8]) is reported as greater than 50000 nM.
In the case of `Cc1cc(/C=C2\SC(=Nc3ccccc3)NC2=O)c(C)n1-c1ccccc1` [OSM-S-35], the inhibition at 40 µM (HEK293) is reported as 57%, the IC50 (PfDHODH [8]) is reported as greater than 50000 nM and the IC50 [9] is reported as greater than 31600 nM.
Work on `Cc1cc(/C=C2\S/C(=N\c3ccccc3)NC2=O)c(C)n1-c1ccc(C(F)(F)F)cc1` [OSM-S-38] yielded an IC50 [13] of 4 nM, a CC50 (in vitro [14]) greater than 50000 nM and an IC50 (PfDHODH [8]) greater than 50000 nM. For the same compound, the inhibition at 1 µM ([12]; female gametocytes) was 20.5% and the inhibition at 1 µM ([12]; male gametocytes) was 26.5%.
In the case of `Cc1cc(/C=C2\S/C(=N\c3ccccc3)NC2=O)c(C)n1-c1cc(C(F)(F)F)cc(C(F)(F)F)c1` [OSM-S-39], the IC50 [13] is reported as 2.6 nM, the IC50 (PfDHODH [8]) is reported as greater than 50000 nM and the inhibition at 1 µM ([12]; female gametocytes) is reported as 31.3%. The inhibition at 1 µM ([12]; male gametocytes) was 36.1%.
In the case of `Cc1cc(/C=C2\SC(=Nc3ccccc3)N(CC#N)C2=O)c(C)n1-c1ccc(C(F)(F)F)cc1` [OSM-S-42], the IC50 (PfDHODH [15]) is reported as greater than 50000 nM.
`Cc1cc(/C=C2\SC(=Nc3ccccc3)N(c3ccccc3)C2=O)c(C)n1-c1ccc(C(F)(F)F)cc1` [OSM-S-52] gave an IC50 (PfDHODH [15]) greater than 50000 nM.
With `Cc1cc(/C=C2\SC(=Nc3ccccc3)N(C3CCCC3)C2=O)c(C)n1-c1ccc(C(F)(F)F)cc1` [OSM-S-54] the IC50 (PfDHODH [15]) was greater than 50000 nM.
`COc1ccc(-n2c(C)cc(/C=C3\SC(=Nc4ccccc4)NC3=O)c2C)cc1` [OSM-S-111] gave a microsomal CLint (in vitro [16]; read-out: 0.4 / CLint, in vitro / (mL/min/mg protein)) of 0.0371 mL/min/mg, a half-life (in vitro [16]; read-out: Protein Conc. (mg/mL): / Degradation half-life /) of 0.777 h and a microsomal CLint (in vitro [17]; read-out: CLint HLM (Monash)) of 8 µL/min/mg. For the same compound, the half-life (in vitro [17]; read-out: t1/2 HLM (Monash)) was 3.45 h, the IC50 ([3]; Guy assay, read-out: Pfal (K1) IC50 (Guy)) was 204 nM and the IC50 ([5]; Guy assay) was 147 nM. The IC50 ([6]; read-out: Pfal IC50 (Guy)) was 147 nM, the IC50 ([7]; read-out: Pfal (K1) IC50 (Guy)) was 204 nM and the inhibition at 40 µM (HEK293) was 32%. The IC50 [13] was 686 nM, the IC50 [18] was 345 nM and the CC50 (in vitro [14]) was 4390 nM. For the same compound, the IC50 [19] was 345 nM, the microsomal CLint (in vitro [20]; read-out: CLint HLM (Monash)) was 8 µL/min/mg and the half-life (in vitro [20]; read-out: t1/2 HLM (Monash)) was 3.45 h. For the same compound, the inhibition at 1 µM ([12]; male gametocytes) was 21.1%.
`CCc1nc(N)nc(N)c1-c1ccc(Cl)cc1` [Pyrimethamine] gave an IC50 [2] of 11 nM, an IC50 [3, 21] of 11900 nM and a CC50 (in vitro [4]) of 13900 nM.
`COc1ccc2nc3cc(Cl)ccc3c(Nc3cc(CN4CCCC4)c(O)c(CN4CCCC4)c3)c2n1` [Pyronaridine] gave an IC50 [2] of 15.2 nM, an IC50 [3, 21] of 21.3 nM and a CC50 (in vitro [4]) of 7700 nM.
Compound `COc1ccc(-n2ccnc2SCC(=O)Nc2cc(C(F)(F)F)ccc2Cl)c(OC)c1` [TCMDC-123822] has an IC50 (PfDHODH [1]) of 48.2 nM.
